Converted amounts (≈) assume the structure as drawn. Read-outs that look alike come from different tables or passages of the source.
Experiments:
[1] = system: resistant human lung with low topo II activity (A549-VP); test: In vitro microdilution inhibition, resistant human lung A549-VP; assay type: cell-based; details: A549VP, 72 hours, 50% of cells killed
From the text: (§1) As shown in Table III the compounds of the present invention exert an in vitro antitumor effect. The following cells lines were employed: human lung (A549); resistant human lung with low topo II activity (A549-VP); murine melanoma (B16); human colon tumor (HCT116); human colon tumor with elevated p170 levels (HCTVM); human colon tumor with low topo II activity (HCTVP); and another human colon carcinoma cell line (Moser). In the Table, the designation "NT" indicates the compound was not tested against the specified cell line. The cell lines were maintained in continuous culture at 37°, 5% CO2 and high humidity. Cells were harvested in log phase growth and suspended at concentration of 25,000 cells/mL. A […] aliquot was then added to each well (i.e., 3,750 cells per well) of a 96-well flat bottom plate and the cells were allowed to attach over a 24 hour period. After this 24 hour incubation, a 50 μL sample of the specified compound was added to the first (top) well of each column, and the remaining wells of each column serially diluted, 1:4, and allowed to incubate for 72 hours at 37° C., 5% CO2 and high humidity. Following incubation, 50 μL of freshly prepared stain solution was added to each well. After a 3 hour incubation at room temperature, absorbance was read at 450 nm on a microplate reader to determine the compound concentration at which 50% of the cells were killed, such concentration referred to as the "IC50 ".

p388 murine leukemia = test: In vivo activity against p388 murine leukemia in an acute mouse model; details: for AWC (average weight change per mouse): before treatment to day five
Experimental: CDF1 mice of both sexes weighing between 16 and 25 gm. were used, with a 2 gm. weight range and same sex and source used per experiment. BDF1 mice also were used with the same weight, sex and source parameters. Control and test animals were injected interperitoneally with suspension of 1×10^6 p388 murine leukemia cells (0.5 mL dose) on day 0. Groups of 4-6 mice were used for each dosage amount they were treated with 5 doses on day one. A group of ten saline treated control mice was included in each set of experiments. A 30 day protocol was employed with mean survival time in days being determined for each group of mice with the number of survivors at the end of the 30 day period being noted. The mice were weighed before treatment and again on day five. The values listed for average weight change (AWC) is the average weight change per mouse at the specified dose. The change in weight was taken as a measure of drug toxicity. A loss in weight of up to 2 grams is not considered excessive. The results were determined in terms of % T/C which is the ratio of the mean survival time of the treated group to the mean survival time of the saline treated group times 100.

[2] = system: human colon tumor (HCT116); test: In vitro microdilution inhibition, HCT116; assay type: cell-based; details: HCT-116, 72 hours, 50% of cells killed
From the text: as §1

[3] = system: human colon carcinoma cell line (Moser); test: In vitro microdilution inhibition, Moser; assay type: cell-based; details: 72 hours, 50% of cells killed
From the text: as §1

human lung (A549) = test: In vitro microdilution inhibition, human lung A549; assay type: cell-based; details: A549, 72 hours, 50% of cells killed
From the text: as §1

[4] = system: human colon tumor with low topo II activity (HCTVP); test: In vitro microdilution inhibition, HCTVP; assay type: cell-based; details: 72 hours, 50% of cells killed
From the text: as §1

murine melanoma (B16) = test: In vitro microdilution inhibition, B16; assay type: cell-based; details: Mus musculus; B16, 72 hours, 50% of cells killed
From the text: as §1

[5] = system: human colon tumor with elevated p170 levels (HCTVM); test: In vitro microdilution inhibition, HCTVM; assay type: cell-based; details: 72 hours, 50% of cells killed
From the text: as §1

p388 mouse leukemia = details: in vitro; cited from earlier work
L1210 mouse leukemia = details: in vitro; cited from earlier work

Structure (SMILES) | IC50 [1] [µg/mL] | AWC (average weight change per mouse) (p388 murine leukemia; CDF1 (female only), 5 mg/kg) | AWC (average weight change per mouse) (p388 murine leukemia; CDF1 (female only), 15 mg/kg) | % T/C (mean survival time treated/control) (p388 murine leukemia; CDF1 (female only), 45 mg/kg) | response vs control in vivo at 5 mg/kg (p388 murine leukemia; Mus musculus, P388, 720 h, CDF1 (female only), 5 mg/kg, read-out: % T/C (mean survival time treated/control)) [%] | response vs control in vivo at 15 mg/kg (p388 murine leukemia; Mus musculus, P388, 720 h, CDF1 (female only), 15 mg/kg, read-out: % T/C (mean survival time treated/control)) [%] | IC50 [2] [µg/mL] | IC50 [3] [µg/mL] | IC50 (human lung (A549)) [µg/mL] | IC50 [4] [µg/mL] | IC50 (murine melanoma (B16)) [µg/mL] | AWC (average weight change per mouse) (p388 murine leukemia; BDF1 (female only), 5 mg/kg) | AWC (average weight change per mouse) (p388 murine leukemia; BDF1 (female only), 15 mg/kg) | AWC (average weight change per mouse) (p388 murine leukemia; BDF1 (female only), 45 mg/kg) | response vs control in vivo at 5 mg/kg (p388 murine leukemia; Mus musculus, P388, 720 h, BDF1 (female only), 5 mg/kg, read-out: % T/C (mean survival time treated/control)) [%] | response vs control in vivo at 15 mg/kg (p388 murine leukemia; Mus musculus, P388, 720 h, BDF1 (female only), 15 mg/kg, read-out: % T/C (mean survival time treated/control)) [%] | response vs control in vivo at 45 mg/kg (p388 murine leukemia; Mus musculus, P388, 720 h, BDF1 (female only), 45 mg/kg, read-out: % T/C (mean survival time treated/control)) [%] | IC50 [5] [µg/mL] | cytotoxicity (p388 mouse leukemia) | cytotoxicity (L1210 mouse leukemia)
CCCCCc1cc2cc3c(c(OCOC)c2c(OC)n1)C1(CC3)C(=O)c2c(O)c3c(c(O)c2C1=O)C(=O)C=CC3=O [Example 7, 6',7'-Dihydro-1-methoxy-9'-(methoxymethoxy)-3'-(n-pentyl)-spiro[2H-benz[f]indene-2,8'-[8H]cyclopent[g]isoquinoline]-1,3,5,8-tetrone] | 8.5 (≈ 14.9 µM) | -2.8 | -3.8 | Toxic | 150 | 150 | 1.2 (≈ 2.1 µM) | 5.9 (≈ 10.3 µM) | 5 (≈ 8.75 µM) | 1.2 (≈ 2.1 µM) | 7 (≈ 12.2 µM) | – | – | – | – | – | – | – | – | –
CCCCCc1cc2cc3c(c(O)c2c(=O)[nH]1)C1(CC3)C(=O)c2c(O)c3c(c(O)c2C1=O)C(=O)C=CC3=O [Example 8, 2',6',7'-Trihydro-4,9,9'-trihydroxy-3'-(n-pentyl)-spiro[2H-benz[f]-indene-2,8'-[8H]cyclopent[g]isoquinoline]-1,1',3,5,8-pentone] | 26.5 (≈ 51.6 µM) | – | – | – | – | – | 14.5 (≈ 28.2 µM) | 18.3 (≈ 35.6 µM) | 24.5 (≈ 47.7 µM) | – | 18 (≈ 35.1 µM) | 1.0 | -1.5 | -2.8 | 125 | 135 | 145 | – | – | –
COCOc1cccc2c1C1(CC2)C(=O)c2c(O)c3c(c(O)c2C1=O)C(=O)C(Nc1cccc(C(=O)O)c1)=CC3=O (centres unmarked) [Example 20, 2',3'-Dihydro-7'-(methoxymethoxy)-1H-indene-1,-spiro-2-[6-(3-carboxyanilino)-4,9-dihydroxy-2H-benz[f]indene-1,2,5,8-tetrone]] | > 16 | – | – | – | – | – | > 16 | > 16 | > 16 | > 16 | > 16 | – | – | – | – | – | – | > 16 | – | –
C/C=C/C=C/c1cc2cc3c(c(O)c2c(=O)[nH]1)C1(CC3)C(=O)c2c(O)c3c(c(O)c2C1=O)C(=O)C(OC)=CC3=O (centres unmarked) [fredericamycin A] | – | – | – | – | – | – | – | – | – | – | – | – | – | – | – | – | – | – | comparable to doxorubicin and actinomycin | comparable to doxorubicin and actinomycin
CNC1=CC(=O)c2c(O)c3c(c(O)c2C1=O)C(=O)C1(CCc2cccc(OCOC)c21)C3=O (centres unmarked) [Example 12, 2',3'-Dihydro-6-methylamino-7'-(methoxymethoxy)-1H-indene-1'-spiro-2-[4,9-dihydroxy-2H-benz[f]-indene-1,3,5,8-tetrone]] | 0.05 (≈ 0.111 µM) | – | – | – | – | – | 0.03 (≈ 0.0668 µM) | 0.03 (≈ 0.0668 µM) | < 0.03 | 0.03 (≈ 0.0668 µM) | 0.03 (≈ 0.0668 µM) | – | – | – | – | – | – | 0.05 (≈ 0.111 µM) | – | –

Source: US5166208A, “Fredericamycin A derivatives” (Boston College, priority 1991, dated 1992)
